The values below come from patent US8853273B2, “Medicinal agent for prevention and/or treatment of hepatocellular carcinoma” (Kowa Co., Ltd., priority 2010, dated 2014).

The subject of series [1] is liver cancer cells. As to conditions: cited from earlier work.
Series [2] has as its system recurrence of hepatocellular carcinoma. Briefly: Clinical test of recurrence of hepatocellular carcinoma after radical treatment in HCV-positive subjects (dynamic CT every 12 weeks, log-rank test). Type of series: in vivo, human. As to conditions: for 50% Recurrence free interval / 75% Recurrence free interval: peroral, 96 weeks, in combination with branched-chain amino acid preparation. As to the method: Peretinoin produced through a known method was used as an acyclic retinoid. A commercial preparation containing isoleucine, leucine, and valine in combination was used as a branched-chain amino acid.
Forty-six subjects (age: 49 to 80) were tested. […] As a preparation containing a branched-chain amino acid, Aminoleban (registered trademark) EN combination powder or Livact (registered trademark) combination granules were administered in a specific amount during the test period. The daily dose of Aminoleban was 150 g (the daily dose including L-isoleucine (5.7675 g), L-leucine (6.111 g), and L-valine (4.806 g)), and that of Livact was 12.45 g (the daily dose including L-isoleucine (2.856 g), L-leucine (5.712 g), and L-valine (3.432 g)). As an acyclic retinoid, peretionin, was administered to the subjects in combination with the branched-chain amino acid. The subjects were divided into the following groups:
1: peretinoin 600 mg (daily dose, the same applies hereinafter) combination group: 18 subjects (male: 11, female: 7),
2: peretinoin 300 mg combination group: 15 subjects (male: 9, female: 6), and
3: branched-chain amino acid sole administration group: 13 subjects (male: 8, female: 5).
The daily dose of peretinoin was divided into two portions. On each day during 96 weeks after start of the test, peretinoin was perorally administered after meal.
Radical curing and recurrence of hepatocellular carcinoma were confirmed through dynamic CT measured every 12 weeks after the start of the test. The combinatory effect on cumulative recurrence free rate was evaluated through the log-rank test.

Series [3] shares this test system. The conditions noted are these: clinical study, cited from earlier work.
The mark [4] stands for this setting: peretinoin 300 mg daily, 15 HCV-positive subjects.
The mark [5] stands for this setting: peretinoin 600 mg daily, 18 HCV-positive subjects.

Molecules are shown by their SMILES.

As for `CC(C)=CCC/C(C)=C/CC/C(C)=C/CC/C(C)=C/C(=O)O` [geranylgeranoic acid], in series [1], the “apoptosis of liver cancer cells” value is on record as “induce apoptosis”.
In the case of `CC(C)=CCC/C(C)=C/CC/C(C)=C/C=C/C(C)=C/C(=O)O` [peretinoin, (2E,4E,6E,10E)-3,7,11,15-tetramethylhexadeca-2,4,6,10,14-pentaenoic acid], the “50% Recurrence free interval” value in series [2] (setting [4]) and in series [2] (setting [5]) was >730 days in each case. Further, the “75% Recurrence free interval” value worked out at 415 days in series [2] (setting [4]) and 705 days in series [2] (setting [5]). In addition, the “extension of 75% recurrence free interval compared with the sole branched-chain amino acid administration group” value in series [2] (peretinoin 300 mg in combination with branched-chain amino acid) is 227 days; in series [2] (peretinoin 600 mg in combination with branched-chain amino acid) it was 517 days. The “cumulative recurrence free rate (FIG. 1)” value in series [2] (peretinoin 600 mg and 300 mg combination groups with branched-chain amino acid) is reported as “remarkable improvement”. In addition, in series [2] (peretinoin 600 mg combination group, Log-rank test), the “cumulative recurrence free rate compared with the sole branched-chain amino acid administration group” value is on record as “significantly improved”. The “extension of 50% recurrence free interval compared with the sole branched-chain amino acid administration group” value in series [2] (peretinoin and branched-chain amino acid combination groups (600 mg and 300 mg)) is “more than double”. The “hepatocellular carcinoma recurrence rate” value in series [2] (peretinoin in combination with branched-chain amino acid) is “reduce”. Moreover, the “liver disorders / adverse side effects” value in series [3] was “substantially no liver disorders”. In series [3] (long-term administration for one year), the “recurrence of hepatocellular carcinoma after radical treatment” value is on record as “significantly inhibited”.
